Measured values reported in publication PMC8202924, “Emodepside targets SLO-1 channels of Onchocerca ochengi and induces broad anthelmintic effects in a bovine model of onchocerciasis” (PLoS Pathogens, 2021).

Tests used:
[1] = Dose identification (tolerability, blood glucose) after single IV infusion in Holstein cattle; format: in vivo, Holstein cattle (Bos taurus)
Excerpt: To ensure that doses of emodepside would be well tolerated in cattle in Cameroon, and that any adverse effects would be manageable in the field, dose identification was first performed in two female Holstein cattle (Bos taurus) 13–15 months old in Germany. Animals were from Rinder Union West, 48147 Münster, Germany, and were kept in a pen in an outdoor climate housing system of approximately 8 × 10 m in size in Hanscheider Hof, 51399 Burscheid, Germany. Pens were equipped with a self-locking feeding fence, deep-straw bedding and an automatic cup drinker system. Animals were offered fresh corn- and grass-silage once daily ad libitum, drinking water from the onsite well and mineral licks ad libitum. Straw bedding was refreshed at least weekly. Tolerability and pharmacokinetics (PK) of emodepside were assessed after a single intravenous (IV) injection: emodepside (4.0% m/m in solketal) was administered by constant infusion via the external jugular vein using disposable sterile IV catheters (Vasofix Braunüle 14G, 2,2 × 50 mm, Braun, Germany), sterile syringes (Perfusor-Syringe 50 mL, Braun, Germany), tubing systems (Braun Original-Perfusor-tubing, 150 cm, Luer Lock), and a perfusion system (Braun Perfusor Space). Animal 1 received emodepside 2.17 mg/kg; animal 2 received emodepside 1 mg/kg. Safety and tolerability were assessed during and after each administration. […] To determine the PK profile of emodepside and any possible influence of the drug on blood glucose concentrations, blood samples were drawn before dosing and at 4 min, 8 min, 15 min, 30 min, 1 h, 2 h, 3 h, 4 h, 6 h, 8 h, 24 h, 32 h, 48 h, 72 h, 96 h and 168 h after administration. Samples for glucose determination were taken before dosing and at 15 min, 30 min, 1 h, 2 h, 3 h, 4 h, 6 h and 8 h after dosing, centrifuged at 10°C (3,220 × g) for 10 min and stored under cool conditions (<8°C).

[2] = Skin concentration of emodepside in the main trial, LC-MS/MS; format: in vivo, zebu (Ngaoundéré Gudali) cattle (B. t. indicus)
Protocol: Bovine samples (EDTA-plasma, skin snips and nodules) were stored at –80°C in Cameroon and shipped according to international transportation guidelines on dry ice to Bayer, Germany. Due to suspected contamination with other pathogens, samples required decontamination. Based on modified WHO guidelines for viral inactivation and reports of virus stability in fluids and solid media issued by the United States Army, decontamination of samples was performed. Samples were thawed slowly in a microbiological safety cabinet and the plasma samples were vortexed gently. Skin snips and nodules were homogenized in a Qiagen TissueLyser II (Qiagen NV, Hilden, the Netherlands) with stainless steel beads. Homogenates were weighed and mixed with 4.5 volumes of a 0.5% collagenase solution (collagenase from Clostridium histolyticum [>125 IU/mg] Merck KGaA, Darmstadt, Germany), then incubated at 37°C with orbital mixing at 140 rpm for 48 h.
Plasma samples, skin and nodule homogenates were precipitated in a 1:10 ratio with acetonitrile using a vortex mixer at 150 rpm for 10 min, then centrifuged for 5 min at 14,000 rpm. The supernatants were pipetted into gas-tight vials and incubated at 80°C for 21 min to achieve a core temperature of 80°C for 10 min, then cooled to 4°C in a water-ice bath. Finally, samples were filtered using a cellulose sterile filter (S&S Spartan 13/30) into standard HPLC vials for liquid chromatography–mass spectrometry analysis. For liquid chromatography on a C18 column, a water/methanol gradient (containing 10 mmol ammonium acetate and 0.1 mL/L formic acid) was used. Quantification of emodepside was performed by tandem mass spectrometry on an API 5500 instrument (AB Sciex, Darmstadt, Germany) using the transition of m/z = 1,120 ([M + H]^+) to its product ion m/z = 343.

[3] = system: Onchocerca ochengi adult female worms; assay: MTT assay for metabolic activity of worms from nodules; format: in vivo; conditions: MRSM, 4 mg/kg every other day for 3 days; day 550
Protocol: Worms from a second unfixed nodule (at the same timepoints listed above) were subjected to a 3-(4,5-dimethylthiazol-2-yl)-2,5-diphenyltetrazolium bromide (MTT) assay for metabolic activity, in which the insoluble formazan product was dissolved in DMSO and quantified colorimetrically at 620 nm in a microplate reader (model LT4500, Labtech, Heathfield, East Sussex, UK). Finally, dermal microfilarial densities were determined by incubation of skin biopsies (in triplicate per animal per timepoint) and normalized to 100 mg skin [59].

[4] = 1 mg/kg IV perfusion, one animal

| Structure (SMILES) | Heart rate by the end of the perfusion [1, 4] | Heart rate, peak during the application [1, 4] | Blood glucose, peak ([1]; 1 mg/kg IV, 3–8 h post-application, xylazine at 6–8 h may have contributed) | Blood glucose ([1]; 1 mg/kg IV, after 24 h (normal)) | Adverse effects ([1]; 1 mg/kg IV, for approximately 1 h after application, then full recovery) | Adverse effects ([1]; 2.17 mg/kg IV perfusion, one animal, treatment discontinued) | Median ratio between skin and plasma concentration ([2]; 54 occasions, same study day, all emodepside groups) | tmax observed in skin ([2]; EMO1L, 0.15 mg/kg IV single dose, animals in order B0696, B0698, B0700, B0730, B0731, B0762) | tmax observed in skin ([2]; EMO7H, 0.75 mg/kg IV daily for 7 days, animals in order B0404, B0434, B0694, B0695, B0734, B0750, B0765) | MTT reduction, worms recovered [3] |
| --- | --- | --- | --- | --- | --- | --- | --- | --- | --- | --- |
| CC(C)C[C@H]1C(=O)O[C@H](Cc2ccc(N3CCOCC3)cc2)C(=O)N(C)[C@@H](CC(C)C)C(=O)O[C@H](C)C(=O)N(C)[C@@H](CC(C)C)C(=O)O[C@H](Cc2ccc(N3CCOCC3)cc2)C(=O)N(C)[C@@H](CC(C)C)C(=O)O[C@H](C)C(=O)N1C [emodepside] | approximately 108 bpm | 140 bpm | ~ 12 mmol/L | 4.33 mmol/L | Salivation and slight muscle tremors | severe generalised muscle tremor, salivation and tachycardia | 1.1 | 24 h | 24 h | – |
| NCCS[As](SCCN)c1ccc(Nc2nc(N)nc(N)n2)cc1 [melarsomine] | – | – | – | – | – | – | – | – | – | no intact worms were recovered |
